From patent publication US10683297B2 (Sunshine Lake Pharma Co., Ltd., priority 2017, dated 2020)
Marks after values point to notes of the source that are not given here.

Tests used:
JAK2 (h) = target: T1, JAK2 (h) (Homo sapiens, UniProt O60674); experiment: JAK2 (h) kinase assay; format: biochemical; conditions: [γ-33P-ATP] 10 μM or KM values; 40 minutes at room temperature
T1 construct: purchased Millipore UK Ltd (assays performed there as a service)
Method: Kinase assays can be performed by measurement of incorporation of γ-^33P ATP into immobilized myelin basic protein (MBP). High binding white 384 well plates (Greiner) are coated with MBP (Sigma # M-1891) by incubation of 60 μL well of 20 μg/mL MBP in Tris-buffered saline (TBS; 50 mM Tris pH 8.0, 138 mM NaCl, 2.7 mM KCl) for 24 h at 4° C. Plates are washed 3× with 100 μL TBS. Kinase reactions are carried out in a total volume of 34 μL in kinase buffer (according to the need to make, for example, 5 mM Hepes pH 7.6, 15 mM NaCl, 0.01% bovine gamma globulin (Sigma #1-5506), 10 mM MgCl2, 1 mM DTT, 0.02% TritonX-100). Compound dilutions are performed in DMSO and added to assay wells to a final DMSO concentration of 1%. Each data point is measured in duplicate, and at least two duplicate assays are performed for each individual compound determination. Enzyme is added to final concentrations of 10 nM or 20 nM, for example. A mixture of unlabeled ATP and γ-^33P ATP is added to start the reaction (2×10^6 cpm of γ-^33P ATP per well (3000 Ci/mmole) and 10 μM unlabeled ATP, typically. The reactions are carried out for 1 hour at room temperature with shaking. Plates are washed 7× with TBS, followed by the addition of 50 μL well scintillation fluid (Wallac). Plates are read using a Wallac Trilux counter. This is only one format of such assays; various other formats are possible, as known to one skilled in the art.
(§1) The above assay procedure can be used to determine the IC50 for inhibition and/or the inhibition constant, Ki. […] The IC50 value is estimated by preparing a 10 point curve using a ½ log dilution series (for example, a typical curve may be prepared using the following compound concentrations: 3 μM, 1 μM, 0.3 μM, 0.1 μM, 0.03 μM, 0.01 μM, 0.003 μM, 0.001 μM, 0.0003 μM and 0 μM).
(§2) JAK2 (h) is incubated with 8 mM MOPS pH 7.0, 0.2 mM EDTA, 100 μM […], 10 mM MgAcetate and [γ-^33P-ATP] […] The reaction is initiated by the addition of the MgATP mix. After incubation for 40 minutes at room temperature, the reaction is stopped by the addition of 3% phosphoric acid solution. 10 μL of the reaction is then spotted onto a P30 filtermat and washed three times for 5 minutes in 75 mM phosphoric acid and once in methanol prior to drying and scintillation counting.
(§3) The kinase assays described herein were performed at Millipore UK Ltd, Dundee Technology Park, Dundee DD2 1SW, UK.

JAK1 (h) = target: T2, JAK1 (h) (Homo sapiens, UniProt P23458); experiment: JAK1 (h) kinase assay; format: biochemical; conditions: [γ-33P-ATP] 10 μM or KM values; 40 minutes at room temperature
T2 construct: purchased Millipore UK Ltd (assays performed there as a service)
T2 sequence (P23458 whole entry): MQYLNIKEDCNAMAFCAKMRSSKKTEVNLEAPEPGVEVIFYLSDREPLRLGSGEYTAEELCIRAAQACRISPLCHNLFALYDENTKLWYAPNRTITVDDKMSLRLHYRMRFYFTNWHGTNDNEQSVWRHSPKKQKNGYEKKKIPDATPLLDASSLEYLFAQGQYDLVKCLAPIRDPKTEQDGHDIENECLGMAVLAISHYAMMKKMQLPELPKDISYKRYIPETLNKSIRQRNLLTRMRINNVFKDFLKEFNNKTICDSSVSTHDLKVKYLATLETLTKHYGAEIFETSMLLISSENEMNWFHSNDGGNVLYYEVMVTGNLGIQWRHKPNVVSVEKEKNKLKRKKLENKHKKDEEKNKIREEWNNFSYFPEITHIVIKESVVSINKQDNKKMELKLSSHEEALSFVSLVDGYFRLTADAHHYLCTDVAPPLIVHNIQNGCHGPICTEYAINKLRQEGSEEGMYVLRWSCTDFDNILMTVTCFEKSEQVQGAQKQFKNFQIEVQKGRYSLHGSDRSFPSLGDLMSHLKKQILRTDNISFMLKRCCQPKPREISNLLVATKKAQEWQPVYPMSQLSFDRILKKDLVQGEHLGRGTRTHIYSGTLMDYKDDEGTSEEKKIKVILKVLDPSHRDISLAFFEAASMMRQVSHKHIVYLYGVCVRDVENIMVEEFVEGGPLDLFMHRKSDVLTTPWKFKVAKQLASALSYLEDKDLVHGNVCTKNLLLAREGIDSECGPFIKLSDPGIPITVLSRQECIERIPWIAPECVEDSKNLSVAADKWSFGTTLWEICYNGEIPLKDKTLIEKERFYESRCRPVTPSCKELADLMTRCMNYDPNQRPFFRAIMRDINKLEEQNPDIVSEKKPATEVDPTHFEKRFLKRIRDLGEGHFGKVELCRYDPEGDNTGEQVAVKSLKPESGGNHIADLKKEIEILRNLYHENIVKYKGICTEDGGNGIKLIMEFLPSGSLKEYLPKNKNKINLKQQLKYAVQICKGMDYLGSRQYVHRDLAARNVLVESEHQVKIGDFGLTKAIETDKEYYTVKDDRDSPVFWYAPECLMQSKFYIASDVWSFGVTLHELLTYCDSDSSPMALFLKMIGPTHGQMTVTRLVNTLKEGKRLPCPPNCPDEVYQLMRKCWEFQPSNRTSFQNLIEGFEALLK
Method: as §1
as §2, with “JAK1” for “JAK2”, “20” for “8”, “Tris/HCl” for “MOPS”, “7.5,” for “7.0,”, “500” for “100”
as §3

Aurora-A (h) = target: T3, Aurora-A (h) (Homo sapiens, UniProt O14965); experiment: Aurora-A (h) kinase assay; format: biochemical; conditions: [γ-33P-ATP] 10 μM or KM values; 40 minutes at room temperature
T3 construct: purchased Millipore UK Ltd (assays performed there as a service)
T3 sequence (O14965 1-403): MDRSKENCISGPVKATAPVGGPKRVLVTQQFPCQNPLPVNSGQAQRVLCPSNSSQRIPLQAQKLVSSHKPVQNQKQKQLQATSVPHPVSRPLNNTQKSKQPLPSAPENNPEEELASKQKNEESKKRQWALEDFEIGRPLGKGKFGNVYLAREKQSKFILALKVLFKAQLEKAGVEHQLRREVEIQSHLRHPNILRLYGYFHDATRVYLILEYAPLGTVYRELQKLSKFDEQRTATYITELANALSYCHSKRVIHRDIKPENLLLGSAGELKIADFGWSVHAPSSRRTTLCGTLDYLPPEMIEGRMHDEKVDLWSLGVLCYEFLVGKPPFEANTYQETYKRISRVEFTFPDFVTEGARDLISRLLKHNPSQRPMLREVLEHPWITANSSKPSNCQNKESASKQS
Method: as §1
Aurora-A (h) is incubated with 8 mM MOPS pH 7.0, 0.2 mM EDTA, 200 μM LRRASLG (Kemptide), 10 mM MgAcetate and [γ-^33P-ATP] […] The reaction is initiated by the addition of the MgATP mix. After incubation for 40 minutes at room temperature, the reaction is stopped by the addition of 3% phosphoric acid solution. 10 μL of the reaction is then spotted onto a P30 filtermat and washed three times for 5 minutes in 75 mM phosphoric acid and once in methanol prior to drying and scintillation counting.
as §3

[1] = Pharmacokinetics after intravenous and oral administration in rats; format: in vivo; conditions: for Clearance (CL) after iv dosing / AUC(0-t) / half-life / Vd: dose 1 mg/kg (Ex. 9: 0.6, Ex. 18: 0.5, Ex. 50: 0.96 mg/kg), iv dosing; for AUC(0-t) / half-life / Vd / bioavailability: rat, plasma; for Vd: read-out: Vss; for bioavailability: oral (generally 5 or 10 mg/kg) versus iv dosing, read-out: F (oral bioavailability)
In short: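 Rats dosed i.v. (about 0.5, 0.6, 1 or 2 mg/kg) or p.o. (5 or 10 mg/kg) as solution, suspension or capsule. Plasma sampled over 24 h and quantified by LC/MS/MS in MRM mode with ESI.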

[2] = Compound stability in human liver microsomes; format: in vitro ADME; conditions: for half-life at 5 μM: human liver microsomes 0.5 mg protein/mL, compound 5 μM, NADPH 1.0 mM, pH 7.4, 37° C., read-out: Human T1/2; for CLint scaled at 5 μM: liver microsomes, pH 7.4, in vivo CLint extrapolated from human liver microsome incubation
In short: (§4)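 Compounds (5 μM) incubated at 37 °C with human or rat liver microsomes (0.5 mg protein/mL) and 1.0 mM NADPH in 100 mM phosphate buffer pH 7.4, 0.05% DMSO, in duplicate. Sampled 0–60 min, quantified by LC/MS/MS as % of time zero; CLint extrapolated.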

[3] = Compound stability in rat liver microsomes; format: in vitro ADME; conditions: for CLint scaled at 5 μM: liver microsomes, pH 7.4, in vivo CLint extrapolated from rat liver microsome incubation; for half-life at 5 μM: rat liver microsomes 0.5 mg protein/mL, compound 5 μM, NADPH 1.0 mM, pH 7.4, 37° C., read-out: Rat T1/2
In short: as §4

[4] = system: PMA-induced increase in mouse ear thickness and weight; experiment: Topical PMA-induced acute atopic dermatitis in ICR mice; format: in vivo; conditions: ICR female mice, 0.3 mg/ear/bid topical; for thickness (right ear) / Weight (right ear): 30 minutes before and 15 minutes after PMA, Mean±Sem; for thickness (right ear) / thickness Inhibition ratio: 6 hours after PMA
Method: ICR female mice (20-30 g), five mice or nine mice/group, were used in this study. Five micrograms of PMA (phorbol 12-myristate 13-acetate) in 20 μL of ethanol was applied topically to the anterior and posterior surface of the right ear of each mouse. Twenty microliters of vehicle (ethanol/acetone ([…])=1/1); 0.3 mg of EX. 68 ([…]); EX. 76, EX. 50, EX. 92 or EX. 65 (0.3 mg […]) were administrated to the same areas 30 minutes before and 15 minutes after PMA application. The thickness of right ears of each mouse was measured 6 hours after PMA stimulation. Ear weight of right ears of each mouse was weighed with analytical balance Each value represents the Mean±Sem. Statistical significance compared with model groups (*P<0.05; **P<0.01). Tables 5-1, 5-2 and 5-3 listed the inhibitory effect on PMA-induced increase in mouse ear thickness and weight. The compounds of the present invention have a good inhibitory effect on PMA-induced increase in mouse ear thickness and weight.

T1 sequence (O60674 whole entry): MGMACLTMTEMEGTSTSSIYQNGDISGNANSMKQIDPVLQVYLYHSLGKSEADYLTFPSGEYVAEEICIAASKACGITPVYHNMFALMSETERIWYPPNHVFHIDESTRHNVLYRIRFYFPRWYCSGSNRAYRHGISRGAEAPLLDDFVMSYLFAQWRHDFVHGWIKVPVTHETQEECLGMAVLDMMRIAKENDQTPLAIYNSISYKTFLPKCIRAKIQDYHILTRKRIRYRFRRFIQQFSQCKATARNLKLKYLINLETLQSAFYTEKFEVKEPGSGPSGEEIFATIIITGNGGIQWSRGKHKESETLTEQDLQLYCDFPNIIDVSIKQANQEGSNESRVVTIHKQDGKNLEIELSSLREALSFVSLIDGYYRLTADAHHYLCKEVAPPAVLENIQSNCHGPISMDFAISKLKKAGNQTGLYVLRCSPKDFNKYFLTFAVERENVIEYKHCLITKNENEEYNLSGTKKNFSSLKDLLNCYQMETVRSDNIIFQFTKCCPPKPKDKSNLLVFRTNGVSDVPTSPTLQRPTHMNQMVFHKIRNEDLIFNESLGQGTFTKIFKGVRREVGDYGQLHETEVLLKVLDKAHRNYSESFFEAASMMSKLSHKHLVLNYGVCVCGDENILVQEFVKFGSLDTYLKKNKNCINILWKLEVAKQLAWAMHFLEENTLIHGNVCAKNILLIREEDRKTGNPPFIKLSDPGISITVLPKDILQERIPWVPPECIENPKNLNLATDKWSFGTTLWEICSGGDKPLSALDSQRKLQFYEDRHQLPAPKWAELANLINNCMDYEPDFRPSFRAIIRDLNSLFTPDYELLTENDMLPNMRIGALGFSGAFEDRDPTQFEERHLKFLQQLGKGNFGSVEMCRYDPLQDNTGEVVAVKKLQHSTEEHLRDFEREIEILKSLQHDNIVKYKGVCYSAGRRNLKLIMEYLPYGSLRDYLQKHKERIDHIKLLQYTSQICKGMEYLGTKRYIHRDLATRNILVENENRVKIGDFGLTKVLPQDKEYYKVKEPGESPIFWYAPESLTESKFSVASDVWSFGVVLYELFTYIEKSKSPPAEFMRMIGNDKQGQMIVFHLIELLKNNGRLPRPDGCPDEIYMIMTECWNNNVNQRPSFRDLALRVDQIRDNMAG

Row | Compound | IC50 (JAK2 (h)) [nM] | IC50 (JAK1 (h)) [nM] | IC50 (Aurora-A (h)) [nM] | Clearance (CL) after iv dosing [1] [mL/min/kg] | AUC(0-t) [1] [ng·h/mL] | half-life [1] [min] | Vd [1] [L/kg] | bioavailability [1] [%] | half-life at 5 μM [2] [min] | CLint scaled at 5 μM [2] [mL/min/kg] | CLint scaled at 5 μM [3] [mL/min/kg] | half-life at 5 μM [3] [min] | Weight Inhibition ratio [4] [%] | thickness (right ear) [4] | Weight (right ear) [4] | thickness Inhibition ratio [4] [%]
1 | CC(C)(O)Cc1cn2ccc(Nc3ncc(Cl)c(NC4CCN(c5ccc(C#N)nn5)CC4)n3)cc2n1 [Example 38, 6-(4-((5-chloro-2-((2-(2-hydroxy-2-methylpropyl)imidazo[1,2-a]pyridin-7-yl)amino)pyrimidin-4-yl)amino)piperidin-1-yl)pyridazine-3-carbonitrile] | 41 | 0.9 | 440 |  |  |  |  |  |  |  |  |  |  |  |  | 
2 | Cn1cnc2cc(Nc3ncc(Cl)c(NC4CCN(c5ccc(C#N)nn5)CC4)n3)ccc21 [Example 50, 6-(4-((5-chloro-2-((1-methyl-1H-benzo[d]imidazol-5-yl)amino)pyrimidin-4-yl)amino)piperidin-1-yl)pyridazine-3-carbonitrile] |  |  |  | 14.2 | 1210 | 63 | 1.17 | 51.8 | 55.6 | 31.3 | 58.2 | 29.9 | 39.95 | 0.321 ± 0.022** mm | 25.222 ± 1.998** mg | 46.89
3 | CC(O)Cc1nc2cc(Nc3ncc(Cl)c(NC4CCN(c5ccc(C#N)cn5)CC4)n3)ccn2n1 (stereo not shown) [Example 57, 6-(4-((5-chloro-2-((2-(2-hydroxypropyl)-[1,2,4]triazolo[1,5-a]pyridin-7-yl)amino)pyrimidin-4-yl)amino)piperidin-1-yl)nicotinonitrile] | 5 | 0.9 | > 300 |  |  |  |  |  |  |  |  |  |  |  |  | 
4 | COC(=O)Cc1nc2cc(Nc3ncc(Cl)c(NC4CCN(c5ccc(C#N)nn5)CC4)n3)ccn2n1 [Example 58, methyl 2-(7-((5-chloro-4-((1-(6-cyanopyridazin-3-yl)piperidin-4-yl)amino)pyrimidin-2-yl)amino)-[1,2,4]triazolo[1,5-a]pyridin-2-yl)acetate] | 27 | 0.8 | > 300 |  |  |  |  |  |  |  |  |  |  |  |  | 
5 | N#Cc1ccc(N2CCC(Nc3nc(Nc4cnc5c(c4)ncn5CCO)ncc3Cl)CC2)nc1 [Example 92, 6-(4-((5-chloro-2-((3-(2-hydroxyethyl)-3H-imidazo[4,5-b]pyridin-6-yl)amino)pyrimidin-4-yl)amino)piperidin-1-yl)nicotinonitrile] |  |  |  |  |  |  |  |  |  |  |  |  | 72.30 | 0.319 ± 0.027** mm | 21.444 ± 1.952** mg | 60.03

The next lines start with results.

Row | IC50 (JAK2 (h)) [nM] | IC50 (JAK1 (h)) [nM] | IC50 (Aurora-A (h)) [nM] | Clearance (CL) after iv dosing [1] [mL/min/kg] | AUC(0-t) [1] [ng·h/mL] | half-life [1] [min] | Vd [1] [L/kg] | bioavailability [1] [%] | half-life at 5 μM [2] [min] | CLint scaled at 5 μM [2] [mL/min/kg] | CLint scaled at 5 μM [3] [mL/min/kg] | half-life at 5 μM [3] [min] | Compound | Weight Inhibition ratio [4] [%] | thickness (right ear) [4] | Weight (right ear) [4] | thickness Inhibition ratio [4] [%]
6 | 10 | < 0.3 | 467 |  |  |  |  |  |  |  |  |  | Cc1cn2ccc(Nc3ncc(Cl)c(NC4CCN(c5ccc(C#N)nn5)CC4)n3)cc2n1 [Example 27, 6-(4-((5-chloro-2-((2-methylimidazo[1,2-a]pyridin-7-yl)amino)pyrimidin-4-yl)amino)piperidin-1-yl)pyridazine-3-carbonitrile] |  |  |  | 
7 |  | 0.5 |  | 14 | 1220 | 33.6 | 0.56 | 56.1 | 41.5 | 41.9 | 164 | 15.1 | N#Cc1ccc(N2CCC(Nc3nc(Nc4ccn5cc(C(F)F)nc5c4)ncc3Cl)CC2)nn1 [Example 28, 6-(4-((5-chloro-2-((2-(difluoromethyl)imidazo[1,2-a]pyridin-7-yl)amino)pyrimidin-4-yl)amino)piperidin-1-yl)pyridazine-3-carbonitrile] |  |  |  | 
8 | 23 | < 0.3 | 1460 |  |  |  |  |  |  |  |  |  | CC(C)(O)Cc1cnc2cc(Nc3ncc(Cl)c(NC4CCN(c5ccc(C#N)cn5)CC4)n3)ccn12 [Example 42, 6-(4-((5-chloro-2-((3-(2-hydroxy-2-methylpropyl)imidazo[1,2-a]pyridin-7-yl)amino)pyrimidin-4-yl)amino)piperidin-1-yl)nicotinonitrile] |  |  |  | 
9 |  | < 0.3 |  | 162 | 1710 | 79.8 | 0.946 | 99.6 | 419 | 4.1 | 25.5 | 97.3 | CC(C)(O)c1nc2cc(Nc3ncc(Cl)c(NC4CCN(c5ccc(C#N)cc5)CC4)n3)ccn2n1 [Example 81, 4-(4-((5-chloro-2-((2-(2-hydroxypropan-2-yl)-[1,2,4]triazolo[1,5-a]pyridin-7-yl)amino)pyrimidin-4-yl)amino)piperidin-1-yl)benzonitrile] |  |  |  | 
